This note sets out measurements from patent US9834542B2, “LXR modulators” (BRISTOL-MYERS SQUIBB COMPANY, priority 2013, dated 2017).

One may read the EC50 as the concentration giving half of the maximal effect. Low readings indicate higher potency in that assay, high ones lower potency in that assay.

In the experiment the target is T1, LXRβ (Homo sapiens, UniProt P55055).
T1 construct: Co-transfection expression plasmids, comprising full-length LXRα (pCMX-h LXRα[…] or LXRβ (pCMX-hLXRβ)); expressed in transfected cells; host or cells: CV-1 African Green Monkey Kidney Cells
T1 sequence (P55055 1-460): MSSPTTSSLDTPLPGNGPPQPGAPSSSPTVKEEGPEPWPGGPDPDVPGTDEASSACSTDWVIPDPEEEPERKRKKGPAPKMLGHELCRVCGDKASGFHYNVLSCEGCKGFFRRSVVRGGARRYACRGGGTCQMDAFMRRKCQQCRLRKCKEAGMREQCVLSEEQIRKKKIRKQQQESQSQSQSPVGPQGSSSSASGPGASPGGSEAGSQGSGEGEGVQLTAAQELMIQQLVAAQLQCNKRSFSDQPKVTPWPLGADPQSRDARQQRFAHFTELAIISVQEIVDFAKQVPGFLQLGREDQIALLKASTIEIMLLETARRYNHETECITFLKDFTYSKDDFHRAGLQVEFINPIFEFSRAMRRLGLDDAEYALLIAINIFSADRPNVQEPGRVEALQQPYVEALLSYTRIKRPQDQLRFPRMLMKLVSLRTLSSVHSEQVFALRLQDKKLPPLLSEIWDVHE
T1 sequence (P19793 1-462 partner): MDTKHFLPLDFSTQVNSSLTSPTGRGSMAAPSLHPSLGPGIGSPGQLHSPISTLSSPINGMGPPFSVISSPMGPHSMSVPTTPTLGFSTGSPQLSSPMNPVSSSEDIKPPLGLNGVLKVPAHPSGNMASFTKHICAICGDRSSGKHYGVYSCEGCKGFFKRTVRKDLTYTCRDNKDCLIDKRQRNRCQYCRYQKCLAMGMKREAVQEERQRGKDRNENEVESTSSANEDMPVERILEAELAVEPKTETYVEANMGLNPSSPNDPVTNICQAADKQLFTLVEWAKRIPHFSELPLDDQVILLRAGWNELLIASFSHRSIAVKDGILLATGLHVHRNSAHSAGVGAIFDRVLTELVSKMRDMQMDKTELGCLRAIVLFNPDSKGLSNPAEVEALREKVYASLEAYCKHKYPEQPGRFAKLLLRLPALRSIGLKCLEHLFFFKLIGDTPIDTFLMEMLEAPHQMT
Nature of the experiment: Co-transfection assay (LXRE luciferase reporter), LXRβ. Particulars: for EC50: CV-1 cells transfected with pCMX-hLXRβ and LXREx1-Tk-Luciferase, 20 hours incubation; for Emax: LXRβ co-transfection, relative to high control 1-(2,4-difluorobenzyl)-2-oxo-6-(4-phenoxyphenyl)-4-(trifluoromethyl)-1,2-dihydropyridine-3-carbonitrile, read-out: % Efficacy. Type of experiment: cell-based. In short, it runs like this: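 CV-1 cells transiently co-transfected with full-length human LXRβ expression plasmid, LXREx1-Tk-luciferase reporter and β-galactosidase control, then exposed to compound for 20 h at 37 °C. Luciferase luminescence read; EC50 from 11-point, ½-log dose–response fit, efficacy relative to high-control agonist maximum.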
In general terms: A reporter such as luciferase makes a cellular process visible.

For the compound `COc1ncc(-c2oc(C)nc2-c2cc(-c3cc(F)c(CO)c(S(C)(=O)=O)c3)ccc2-n2cc(C(F)(F)F)nc2C)cn1` [Example 415, (3-fluoro-3′-(5-(2-methoxypyrimidin-5-yl)-2-methyloxazol-4-yl)-4′-(2-methyl-4-(trifluoromethyl)-1H-imidazol-1-yl)-5-(methylsulfonyl)biphenyl-4-yl)methanol], the response was half-maximal at 1500 nM (EC50) and the Emax was determined as 86%.
Taken in the same sequence, the figures for `Cc1nc(C(F)(F)F)cn1-c1ccc(-c2cccc(S(C)(=O)=O)c2)cc1-n1nncc1C(C)c1ccc(Cl)cc1` (centres unmarked) [Example 108, 5-[1-(4-chlorophenyl)ethyl]-1-{3′-(methylsulfonyl)-4-[2-methyl-4-(trifluoromethyl)-1H-imidazol-1-yl]biphenyl-3-yl}-1H-1,2,3-triazole] were 149 nM and 62%.
Consider `Cc1nc(-c2cc(-c3cccc(S(C)(=O)=O)c3)ccc2-n2cc(C(F)(F)F)nc2C)c(-c2ccc3c(c2)OCCO3)o1` [Example 443, 5-(2,3-dihydrobenzo[b][1,4]dioxin-6-yl)-2-methyl-4-(4-(2-methyl-4-(trifluoromethyl)-1H-imidazol-1-yl)-3′-(methylsulfonyl)biphenyl-3-yl)oxazole], for which a half-maximal effect (EC50) was put at 234 nM and the Emax is 75%.
Taken in the same sequence, the figures for `Cc1nc(C(F)(F)F)cn1-c1ccc(-c2cc(F)c(CO)c(S(C)(=O)=O)c2)cc1-n1nncc1C(C)c1ccc(Cl)cc1` (centres unmarked) [Example 109, (3′-{5-[1-(4-chlorophenyl)ethyl]-1H-1,2,3-triazol-1-yl}-3-fluoro-5-(methylsulfonyl)-4′-[2-methyl-4-(trifluoromethyl)-1H-imidazol-1-yl]biphenyl-4-yl)methanol] were 111 nM and 53%.
Taken in the same sequence, the figures for `Cc1nc(C(F)(F)F)cn1-c1ccc(-c2cc(F)c(CO)c(S(C)(=O)=O)c2)cc1-c1ocnc1-c1ccc(Cl)cc1` [Example 355, {3′-[4-(4-chlorophenyl)-1,3-oxazol-5-yl]-3-fluoro-5-(methylsulfonyl)-4′-[2-methyl-4-(trifluoromethyl)-1H-imidazol-1-yl]biphenyl-4-yl}methanol] were 105 nM and 98%.
Taken in the same sequence, the figures for `Cc1nc(-c2cc(-c3cccc(S(C)(=O)=O)c3)ccc2-n2cc(Cl)nc2C)c(-c2ccc(OC(F)F)c(F)c2)o1` [Example 466, 4-(4-(4-chloro-2-methyl-1H-imidazol-1-yl)-3′-(methylsulfonyl)biphenyl-3-yl)-5-(4-(difluoromethoxy)-3-fluorophenyl)-2-methyloxazole] were 198 nM and 84%.
With `Cc1nc(C(F)(F)F)cn1-c1ccc(-c2cccc(C(C)(C)C(N)=O)c2)cc1-n1nncc1C(=O)c1ccc(C(F)(F)F)cc1` [Example 135, 2-methyl-2-{4′-[2-methyl-4-(trifluoromethyl)-1H-imidazol-1-yl]-3′-(5-{[4-(trifluoromethyl)phenyl]carbonyl}-1H-1,2,3-triazol-1-yl)biphenyl-3-yl}propanamide], the EC50 came out at 886 nM and the Emax is 70%.
For `CCCc1nc(-c2ccc(OC(F)(F)F)cc2)c(-c2cc(-c3cccc(S(C)(=O)=O)c3)ccc2-n2cc(C(F)(F)F)nc2C)o1` [Example 602, 5-{3′-(methylsulfonyl)-4-[2-methyl-4-(trifluoromethyl)-1H-imidazol-1-yl]biphenyl-3-yl}-2-propyl-4-{4-[(trifluoromethyl)oxy]phenyl}-1,3-oxazole], in that order: 25 nM and 87%.
For `Cc1nc(-c2cc(-c3cccc(S(C)(=O)=O)c3)ccc2-n2cc(C(F)(F)F)nc2C)c(-c2ccc(F)c(F)c2)o1` [Example 511, 5-(3,4-difluorophenyl)-2-methyl-4-(4-(2-methyl-4-(trifluoromethyl)-1H-imidazol-1-yl)-3′-(methylsulfonyl)biphenyl-3-yl)oxazole], in that order: 115 nM and 79%.
As for `Cc1ccc(-c2cnnn2-c2cc(-c3cc(Cl)c(CO)c(S(C)(=O)=O)c3)ccc2-n2cc(C(F)(F)F)nc2C)cc1` [Example 63, {3-chloro-3′-[5-(4-methylphenyl)-1H-1,2,3-triazol-1-yl]-5-(methyllsulfonyl)-4′-[2-methyl-4-(trifluoromethyl)-1H-imidazol-1-yl]biphenyl-4-yl}methanol], the EC50 worked out at 281 nM and the Emax turned out to be 68%.
Taken in the same sequence, the figures for `Cc1nc(C(C)(F)F)cn1-c1ccc(-c2cccc(S(=O)(=O)N(C)C)c2)cc1-n1nncc1-c1ccc(OC(F)(F)F)cc1` [Example 181, 4′-[4-(1,1-difluoroethyl)-2-methyl-1H-imidazol-1-yl]-N,N-dimethyl-3′-(5-{4-[(trifluoromethyl)oxy]phenyl}-1H-1,2,3-triazol-1-yl)biphenyl-3-sulfonamide] were 502 nM and 70%.
With `Cc1nc(C(F)(F)F)cn1-c1ccc(-c2cccc(S(C)(=O)=O)c2)cc1-n1nncc1Cc1cccc(OC(F)(F)F)c1` [Example 116, 1-{3′-(methylsulfonyl)-4-[2-methyl-4-(trifluoromethyl)-1H-imidazol-1-yl]biphenyl-3-yl}-5-({3-[(trifluoromethyl)oxy]phen-yl}methyl)-1H-1,2,3-triazole], the half-maximal effective concentration (EC50) was determined as 982 nM and the Emax worked out at 59%.
Taken in the same sequence, the figures for `Cc1nc(C(F)(F)F)cn1-c1ccc(-c2cccc(S(C)(=O)=O)c2)cc1-c1ocnc1-c1ccc(OC(F)(F)F)cc1` [Example 361, 5-{3′-(methylsulfonyl)-4-[2-methyl-4-(trifluoromethyl)-1H-imidazol-1-yl]biphenyl-3-yl}-4-{4-[(trifluoromethyl)oxy]phenyl}-1,3-oxazole] were 183 nM and 89%.
Taken in the same sequence, the figures for `Cc1nc(-c2cc(-c3cccc(S(C)(=O)=O)c3)ccc2-n2cc(C(F)(F)F)nc2C)c(-c2cccn(C(C)C)c2=O)o1` [Example 379, 1-isopropyl-3-(2-methyl-4-(4-(2-methyl-4-(trifluoromethyl)-1H-imidazol-1-yl)-3′-(methylsulfonyl)biphenyl-3-yl)oxazol-5-yl)pyridin-2(1H)-one] were 825 nM and 21%.
Regarding `Cc1cc(-c2cc(-c3cccc(S(C)(=O)=O)c3)ccc2-n2cc(C(F)(F)F)nc2C)n(-c2ccc3c(c2)OC(F)(F)O3)n1` [Example 304, 1-(2,2-difluorobenzo[d][1,3]dioxol-5-yl)-3-methyl-5-(4-(2-methyl-4-(trifluoromethyl)-1H-imidazol-1-yl)-3′-(methylsulfonyl)-[1,1′-biphenyl]-3-yl)-1H-pyrazole], a half-maximal effect (EC50) was put at 28 nM and the Emax amounted to 100%.
For `Cc1nc(C(F)(F)F)cn1-c1ccc(-c2cc(F)c(CO)c(S(C)(=O)=O)c2)cc1-c1nc(C(C)CO)oc1-c1ccc(OC(F)(F)F)cc1` (centres unmarked) [Example 554, 2-(4-(3′-fluoro-4′-(hydroxymethyl)-4-(2-methyl-4-(trifluoromethyl)-1H-imidazol-1-yl)-5′-(methylsulfonyl)-[1,1′-biphenyl]-3-yl)-5-(4-(trifluoromethoxy)phenyl)oxazol-2-yl)propan-1-ol], in that order: 226 nM and 31%.
As for `CS(=O)(=O)c1cccc(-c2cc(F)c(-n3cnc(C(F)(F)F)c3)c(-n3nncc3-c3ccc(Cl)cc3Cl)c2)c1` [Example 191, 5-(2,4-dichlorophenyl)-1-{5-fluoro-3′-(methylsulfonyl)-4-[4-(trifluoromethyl)-1H-imidazol-1-yl]biphenyl-3-yl}-1H-1,2,3-triazole], the midpoint of the response, the EC50, lay at 452 nM and the Emax was 102%.
For `CCC(F)(F)c1cn(-c2ccc(-c3cccc(S(=O)(=O)N(C)C)c3)cc2-n2nncc2-c2ccc(OC(F)(F)F)cc2)c(C)n1` [Example 182, 4′-[4-(1,1-difluoropropyl)-2-methyl-1H-imidazol-1-yl]-N,N-dimethyl-3′-(5-{4-[(trifluoromethyl)oxy]phenyl}-1H-1,2,3-triazol-1-yl)biphenyl-3-sulfonamide], in that order: 494 nM and 78%.
For `Cc1nc(C(F)(F)F)cn1-c1ccc(-c2cccc(S(C)(=O)=O)c2)cc1-n1nncc1-c1ccc(C(F)(F)F)nc1` [Example 80, 5-(1-{3′-(methylsulfonyl)-4-[2-methyl-4-(trifluoromethyl)-1H-imidazol-1-yl]biphenyl-3-yl}-1H-1,2,3-triazol-5-yl)-2-(trifluoromethyl)pyridine], in that order: 2690 nM and 81%.
